Measurements taken from patent US11725036B2, “Modified lipidated relaxin B chain peptides and their therapeutic use” (Sanofi, priority 2018, dated 2023).
Values after ≈ are worked out from the molar mass of the structure shown. Like-named read-outs stand apart in the source and are kept apart here. Starred links: 1 amine or outer side, 2 acyl side, 3 side chain; linkers in the order of their positions; H or OH if unused. Non-standard residues stand in square brackets, D forms with d. Residues, ends and D or L forms follow the SMILES beside them. Groups on a side chain read outwards from the residue. *: point of attachment. X10 = CCCCCCCCCCCCCC(=O)N[C@@H](CCC(=O)N[C@@H](CCC(=O)N[C@@H](CCC(=O)N[C@@H](CCC(=O)NCCCOCCOCCOCCCNC(=O)CCC(=O)NCCCOCCOCCOCCCNC(=O)CCC(=O)NCCCOCCOCCOCCCN*)C(=O)O)C(=O)O)C(=O)O)C(=O)O; X6 = CCCCCCCCCCCCCC(=O)N[C@@H](CCC(=O)N[C@@H](CCC(=O)N[C@@H](CCC(=O)NCCCOCCOCCOCCCNC(=O)CCC(=O)NCCCOCCOCCOCCCNC(=O)CCC(=O)NCCCOCCOCCOCCCN*)C(=O)O)C(=O)O)C(=O)O; X2 = CCCCCCCCCCCCCCCC(=O)N[C@@H](CCC(=O)N[C@@H](CCC(=O)N[C@@H](CCC(=O)NCCCOCCOCCOCCCNC(=O)CCC(=O)NCCCOCCOCCOCCCN*)C(=O)O)C(=O)O)C(=O)O; γGlu = O=C(O)[C@H](CCC(=O)[*:2])N[*:1]; Palmitoyl = CCCCCCCCCCCCCCCC(=O)*; Suc = O=C(CCC(=O)[*:2])[*:1]; αMeK = C[C@](N)(CCCCN)C(=O)O; AEEA = NCCOCCOCC(=O)O; Aib = CC(C)(N)C(=O)O

Key:
[1] = Solubility testing in buffer; assay type: physicochemical; conditions: target solubility 10.0 mg/ml
Procedure: Prior to the testing of solubility of a peptide batch, its purity (HPLC-UV) was determined.
Acetate Buffer 50 mM pH4.5: 0.75 g C2H3C02Na,3H2O (Sigma S7545)+0.35 ml CH3CO2H 100% solution dissolved in Millipore water, adjusted to pH with diluted (1:1) CH3CO2H and diluted to 250 ml with Millipore water.
In a 4 ml Ependorph vial, an accurately weighed sample of compound was diluted in study media to obtain target concentration of 2, 6 or 10 mg/ml of pure compound. The sample vials were shacked (rock 'roll shaker) for ˜19 h. 300 μL aliquots were filtered through a Millipore “Solvinert” plate (0.45 μm-PTFE hydrophilic).
pH was measured with a micro electrode
Waters Acquity UPLC System with DAD detector
Column: Waters Peptide Column CSH C18 (130 Å; 1.7 μm; 50*2.1 mm)
Column temperature: 60° C.
Full loop (about 5 μL)—overfill factor 5
Weak et Strong wash: H2O/ACN (75/25; V/V); Seal wash: H2O/IsOH (95/5; V/V). Mobile phase:
Solvent A: 0.05% TFA in H2O; Solvent B: 0.035% TFA in CH3CN
Gradient: from 0 to 12 min B=2% to 60%, from 12 to 14 min B=60% to 100%. Column washing 100% B 1 min, column equilibration 2% B 2.5 min.
UV detector: wavelength: 220 nm.

RXFP1 = target: T1, RXFP1 (Homo sapiens, UniProt Q9HBX9); test: OVCAR5 cAMP assay (HTRF); assay type: cell-based; conditions: for EC50: OVCAR 5 cells expressing endogenous RXFP1, cAMP readout; for Emax: OVCAR 5 cells, maximal cAMP relative to H2-relaxin
T1 construct: OVCAR5 cells expressing endogenous RXFP1; endogenous in cells; host or cells: OVCAR5
T1 sequence (Q9HBX9 1-757): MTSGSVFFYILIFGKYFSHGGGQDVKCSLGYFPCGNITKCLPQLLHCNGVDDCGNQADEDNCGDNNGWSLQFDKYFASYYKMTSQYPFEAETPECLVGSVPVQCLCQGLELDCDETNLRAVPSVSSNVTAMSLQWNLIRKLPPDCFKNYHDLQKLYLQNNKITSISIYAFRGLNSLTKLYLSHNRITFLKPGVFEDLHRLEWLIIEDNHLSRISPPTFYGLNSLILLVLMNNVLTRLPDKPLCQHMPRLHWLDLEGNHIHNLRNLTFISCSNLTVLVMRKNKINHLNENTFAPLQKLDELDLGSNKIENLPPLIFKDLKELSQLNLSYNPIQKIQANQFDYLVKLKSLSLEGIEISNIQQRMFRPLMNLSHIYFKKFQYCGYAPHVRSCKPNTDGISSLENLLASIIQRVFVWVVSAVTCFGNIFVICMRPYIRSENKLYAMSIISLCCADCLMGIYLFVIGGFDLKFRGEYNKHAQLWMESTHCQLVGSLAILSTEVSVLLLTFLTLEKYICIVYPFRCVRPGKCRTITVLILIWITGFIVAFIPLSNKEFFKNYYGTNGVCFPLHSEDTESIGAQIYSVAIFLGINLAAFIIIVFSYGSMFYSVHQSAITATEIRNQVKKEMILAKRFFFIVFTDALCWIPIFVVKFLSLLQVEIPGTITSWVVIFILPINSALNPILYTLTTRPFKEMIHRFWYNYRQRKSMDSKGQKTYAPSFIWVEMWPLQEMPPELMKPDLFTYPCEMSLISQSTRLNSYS
Outline: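 Peptide agonism measured as intracellular cAMP (HTRF) after 30 min at 37° C in serum-free medium, following 40 min 1 mM IBMX preincubation of OVCAR5 cells. Nonlinear regression gave EC50; Emax % = 100 × compound maximal cAMP / H2-relaxin maximal cAMP.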

[2] = acetate buffer 50 mM pH 4.5, read-out: Solubility Acetate buffer pH 4.5
[3] = phosphate buffer 50 mM pH 7.4, read-out: Solubility phosphate buffer pH 7.4

| Structure (SMILES) | solubility [1, 2] | solubility [1, 3] | EC50 (RXFP1) | Emax (RXFP1) |
| --- | --- | --- | --- | --- |
| CCCCCCCCCCCCCCCC(=O)N[C@@H](CCC(=O)N[C@@H](CCC(=O)N[C@@H](CCC(=O)NCCCOCCOCCOCCCNC(=O)CCC(=O)NCCCOCCOCCOCCCNC(=O)CCC(=O)NCCCC[C@H](NC(=O)CNC(=O)[C@H](CCC(=O)O)NC(=O)C(C)(C)NC(=O)C(C)(C)NC(=O)[C@@H](NC(=O)[C@H](CCCCNC(C)=O)NC(=O)[C@H](C)NC(=O)[C@H](CCCNC(=N)N)NC(=O)[C@@H](NC(=O)[C@H](CCCCN)NC(=O)[C@H](CCC(=O)O)NC(=O)[C@H](CCCNC(=N)N)NC(=O)CNC(=O)[C@H](CCC(=O)O)NC(=O)[C@H](CC(C)C)NC(C)=O)C(C)C)[C@@H](C)CC)C(=O)N[C@@H](CO)C(=O)N[C@H](C(=O)N[C@@H](Cc1c[nH]c2ccccc12)C(=O)N[C@@H](CO)C(=O)N[C@H](CCCCN)C(=O)N[C@@H](CCCNC(=N)N)C(=O)N[C@@H](C)C(=O)N[C@@H](CCCCNC(C)=O)C(N)=O)[C@@H](C)O)C(=O)O)C(=O)O)C(=O)O [compound 17] (Ac-LEGREKVRAK(Ac)I[Aib][Aib]EGK([Suc-X2])STWS[dK]RAK(Ac)-NH2) | 9220 µg/mL (≈ 2260 µM) | 6810 µg/mL (≈ 1670 µM) | 4.6 nM | 91% |
| CCCCCCCCCCCCCC(=O)N[C@@H](CCC(=O)N[C@@H](CCC(=O)N[C@@H](CCC(=O)NCCCOCCOCCOCCCNC(=O)CCC(=O)NCCCOCCOCCOCCCNC(=O)CCC(=O)NCCCOCCOCCOCCCNC(=O)CCC(=O)NCCCC[C@H](NC(=O)CNC(=O)[C@H](CCC(=O)O)NC(=O)C(C)(C)NC(=O)C(C)(C)NC(=O)[C@@H](NC(=O)[C@H](CCCCNC(C)=O)NC(=O)[C@H](C)NC(=O)[C@H](CCCNC(=N)N)NC(=O)[C@@H](NC(=O)[C@H](CCCCN)NC(=O)[C@H](CCC(=O)O)NC(=O)[C@H](CCCNC(=N)N)NC(=O)CNC(=O)[C@H](CCC(=O)O)NC(=O)[C@H](CC(C)C)NC(C)=O)C(C)C)[C@@H](C)CC)C(=O)N[C@@H](CO)C(=O)N[C@H](C(=O)N[C@@H](Cc1ccccc1)C(=O)N[C@@H](CO)C(=O)N[C@@](C)(CCCCN)C(=O)N[C@@H](CCCNC(=N)N)C(=O)N[C@@H](C)C(=O)N[C@@H](CCCCNC(C)=O)C(N)=O)[C@@H](C)O)C(=O)O)C(=O)O)C(=O)O [compound 95] (Ac-LEGREKVRAK(Ac)I[Aib][Aib]EGK([Suc-X6])STFS[αMeK]RAK(Ac)-NH2) |  |  | 1.8 nM | 91% |
| CCCCCCCCCCCCCC(=O)N[C@@H](CCC(=O)N[C@@H](CCC(=O)N[C@@H](CCC(=O)NCCCOCCOCCOCCCNC(=O)CCC(=O)NCCCOCCOCCOCCCNC(=O)CCC(=O)NCCCOCCOCCOCCCNC(=O)CCC(=O)NCCCC[C@H](NC(=O)CNC(=O)[C@H](CCC(=O)O)NC(=O)C(C)(C)NC(=O)C(C)(C)NC(=O)[C@@H](NC(=O)[C@H](CCCCNC(C)=O)NC(=O)[C@H](C)NC(=O)[C@H](CCCNC(=N)N)NC(=O)[C@@H](NC(=O)[C@H](CCCCN)NC(=O)[C@H](CCC(=O)O)NC(=O)[C@H](CCCNC(=N)N)NC(=O)CNC(=O)[C@H](CCC(=O)O)NC(=O)[C@H](CC(C)C)NC(C)=O)C(C)C)[C@@H](C)CC)C(=O)N[C@@H](CO)C(=O)N[C@H](C(=O)N[C@@H](Cc1ccccc1)C(=O)N[C@@H](CO)C(=O)N[C@@](C)(CCCCN)C(=O)N[C@@H](CCCNC(=N)N)C(=O)N[C@@H](C)C(=O)N[C@@H](CCCCN)C(N)=O)[C@@H](C)O)C(=O)O)C(=O)O)C(=O)O [compound 96] (Ac-LEGREKVRAK(Ac)I[Aib][Aib]EGK([Suc-X6])STFS[αMeK]RAK-NH2) |  |  | 0.88 nM | 92% |

The remaining compounds from weak to strong by EC50 (RXFP1), led by results:

| solubility [1, 2] | solubility [1, 3] | EC50 (RXFP1) | Emax (RXFP1) | Structure (SMILES) |
| --- | --- | --- | --- | --- |
| 6240 µg/mL (≈ 1530 µM) | 6410 µg/mL (≈ 1570 µM) | 9.1 nM | 85% | CCCCCCCCCCCCCCCC(=O)N[C@@H](CCC(=O)N[C@@H](CCC(=O)N[C@@H](CCC(=O)NCCOCCOCC(=O)NCCOCCOCC(=O)NCCOCCOCC(=O)NCCOCCOCC(=O)NCCCC[C@H](NC(=O)CNC(=O)[C@H](CCC(=O)O)NC(=O)C(C)(C)NC(=O)C(C)(C)NC(=O)[C@@H](NC(=O)[C@H](CCCCNC(C)=O)NC(=O)[C@H](C)NC(=O)[C@H](CCCNC(=N)N)NC(=O)[C@@H](NC(=O)[C@H](CCCCN)NC(=O)[C@H](CCC(=O)O)NC(=O)[C@H](CCCNC(=N)N)NC(=O)CNC(=O)[C@H](CCC(=O)O)NC(=O)[C@H](CC(C)C)NC(C)=O)C(C)C)[C@@H](C)CC)C(=O)N[C@@H](CO)C(=O)N[C@H](C(=O)N[C@@H](Cc1c[nH]c2ccccc12)C(=O)N[C@@H](CO)C(=O)NC(C)(C)C(=O)N[C@@H](CCCNC(=N)N)C(=O)N[C@@H](CCCCN)C(=O)N[C@@H](CCCCNC(C)=O)C(N)=O)[C@@H](C)O)C(=O)O)C(=O)O)C(=O)O [compound 5] (Ac-LEGREKVRAK(Ac)I[Aib][Aib]EGK([AEEA-AEEA-AEEA-AEEA-γGlu-γGlu-γGlu-Palmitoyl])STWS[Aib]RKK(Ac)-NH2) |
| 6330 µg/mL (≈ 1560 µM) | 6720 µg/mL (≈ 1660 µM) | 6.8 nM | 88% | CCCCCCCCCCCCCCCC(=O)N[C@@H](CCC(=O)N[C@@H](CCC(=O)N[C@@H](CCC(=O)NCCCOCCOCCOCCCNC(=O)CCC(=O)NCCCOCCOCCOCCCNC(=O)CCC(=O)NCCCC[C@H](NC(=O)CNC(=O)[C@H](CCC(=O)O)NC(=O)C(C)(C)NC(=O)C(C)(C)NC(=O)[C@@H](NC(=O)[C@H](CCCCNC(C)=O)NC(=O)[C@H](C)NC(=O)[C@H](CCCNC(=N)N)NC(=O)[C@@H](NC(=O)[C@H](CCCCN)NC(=O)[C@H](CCC(=O)O)NC(=O)[C@H](CCCNC(=N)N)NC(=O)CNC(=O)[C@H](CCC(=O)O)NC(=O)[C@H](CC(C)C)NC(C)=O)C(C)C)[C@@H](C)CC)C(=O)N[C@@H](CO)C(=O)N[C@H](C(=O)N[C@@H](Cc1ccccc1)C(=O)N[C@@H](CO)C(=O)N[C@H](CCCCN)C(=O)N[C@@H](CCCNC(=N)N)C(=O)N[C@@H](C)C(=O)N[C@@H](CCCCNC(C)=O)C(N)=O)[C@@H](C)O)C(=O)O)C(=O)O)C(=O)O [compound 16] (Ac-LEGREKVRAK(Ac)I[Aib][Aib]EGK([Suc-X2])STFS[dK]RAK(Ac)-NH2) |
|  |  | 0.29 nM | 98% | CCCCCCCCCCCCCC(=O)N[C@@H](CCC(=O)N[C@@H](CCC(=O)N[C@@H](CCC(=O)N[C@@H](CCC(=O)NCCCOCCOCCOCCCNC(=O)CCC(=O)NCCCOCCOCCOCCCNC(=O)CCC(=O)NCCCOCCOCCOCCCNC(=O)CCC(=O)NCCCC[C@H](NC(=O)CNC(=O)[C@H](CCC(=O)O)NC(=O)C(C)(C)NC(=O)C(C)(C)NC(=O)[C@@H](NC(=O)[C@H](CCCCNC(C)=O)NC(=O)[C@H](C)NC(=O)[C@H](CCCNC(=N)N)NC(=O)[C@@H](NC(=O)[C@H](CCCCN)NC(=O)[C@H](CCC(=O)O)NC(=O)[C@H](CCCNC(=N)N)NC(=O)CNC(=O)[C@H](CCC(=O)O)NC(=O)[C@H](CC(C)C)NC(C)=O)C(C)C)[C@@H](C)CC)C(=O)N[C@@H](CO)C(=O)N[C@H](C(=O)N[C@@H](Cc1ccccc1)C(=O)N[C@@H](CO)C(=O)N[C@@](C)(CCCCN)C(=O)N[C@@H](CCCNC(=N)N)C(=O)N[C@@H](C)C(=O)N[C@@H](CCCCN)C(N)=O)[C@@H](C)O)C(=O)O)C(=O)O)C(=O)O)C(=O)O [compound 97] (Ac-LEGREKVRAK(Ac)I[Aib][Aib]EGK([Suc-X10])STFS[αMeK]RAK-NH2) |
